Data published in patent US7547726B2, “AI-2 compounds and analogs based on Salmonella typhimurium LsrB structure” (The Trustees of Princeton University, priority 2004, dated 2009).
Read-outs that look alike come from different tables or passages of the source.

Experiments:
[1] = system: lsr operon in S. typhimurium strain MET844 (LuxS−); assay: S. typhimurium AI-2 bioassay (lsr-lacZ, β-galactosidase activity, strain MET844); assay type: cell-based; conditions: for lsr expression (β-galactosidase activity): borate-depleted LB medium, 4 hr, approximately 10 μM DPD and LsrB ligand, 4 μM LuxP ligand
Experimental: (§1) V. harveyi strain MM32 (luxN::Cm, luxS::Tn5Kan) was used for bioluminescence assays. This strain was constructed by introducing luxS::Tn5Kan onto the chromosome of strain JAF305 (luxN::Cm) (Bassler et al., 1993; Freeman et al., 1999). S. typhimurium strain MET844 (rpsL, putRA::Kan-lsr-lacZYA, ΔlsrFGE::Cm, luxS::TPOP) was used for lsr-lacZ assays (Taga et al., 2003). V. harveyi was grown in borate-depleted autoinducer bioassay (AB) medium (Greenberg et al., 1979), and S. typhimurium was grown in borate-depleted Luria-Bertani (LB) medium. To remove borate, the media were filtered through a borate anion-specific resin, Amberlite IRA743 (Sigma-Aldrich). Specifically, 500 ml of medium was passed three times through 30 ml of resin and the column was regenerated between each passage according to a method described previously (Bennett et al., 1999). Following filtration, the pH of the medium was adjusted using KOH made with borate-depleted water. For all experiments involving borate-depleted reagents, only plastic supplies were used. To test the effect of boron on the bioluminescence and lsr-lacZ assays, boric acid was added to the borate-depleted media to a final concentration of 5 mM.
AI-2-dependent induction of the lsr operon in S. typhimurium was measured by determining the β-galactosidase activity of the lsr-lacZ promoter fusion in S. typhimurium strain MET844. Overnight cultures were grown in borate-depleted LB medium at 37° C. with aeration and were diluted 1:100 into fresh borate-depleted LB medium in the presence or absence of 5 mM boric acid. To the diluted cells (900 μl), 10% (v/v) autoinducer samples were added (100 μl), and cells were grown for 4 hr. Cell lysates were prepared and β-galactosidase activity was measured as described previously (Taga et al., 2003). β-galactosidase units are defined as [(OD420 min^−1×dilution factor)/OD600].
(§2) Ligands were released from LsrB and LuxP as described above. All ligand concentrations were estimated by ^11B-NMR in NMR buffer supplemented with 5 mM boric acid; the area of the boric acid peak served as an internal concentration standard.

[2] = system: V. harveyi strain MM32 (LuxN−, LuxS−); assay type: cell-based; conditions: for light production: ligand approximately 0.2 nM, 8 hr of growth
Experimental: as §1
V. harveyi MM32 was grown 14 hr in borate-depleted AB at 30° C. with aeration and subsequently diluted 1:5,000 into fresh borate-depleted AB medium in the presence or absence of 5 mM boric acid. 10% autoinducer samples (v/v) were added to the diluted cells and light production was measured hourly in a Wallac Model 1450 Microbeta Plus liquid scintillation counter. […] Bioluminescence is reported as the light produced by the cells divided by the background obtained in medium alone.
as §2
To directly examine the influence of borate on AI-2-dependent signaling in V. harveyi and S. typhimurium, borate-depleted medium was prepared. AI-2 responses (bioluminescence in V. harveyi, lsr operon induction in S. typhimurium) were measured both with and without added boric acid. In this experiment, V. harveyi strain, MM32 was used because this strain lacks the LuxS enzyme needed to biosynthesize DPD and thus produces no endogenous AI-2 signal. This strain also has the AI-1 pathway inactivated. Bioluminescence was measured following addition of enzymatically synthesized DPD or, alternatively, ligand released from either LsrB or LuxP.

[3] = system: V. harveyi; conditions: cited from earlier work
[4] = molecular target: T1, S. typhimurium receptor LsrB (Salmonella typhimurium, UniProt Q8ZKQ1); assay: X-ray crystal structure of the LsrB:ligand complex; assay type: binding; conditions: holo-LsrB crystal, 1.3 Å resolution
T1 construct: The final model contains all LsrB residues present in the protein (27-340); GST (N, cleaved yes); made in house; host or cells: E. coli BL21
Source text: Both apo-LsrB and holo-LsrB crystallized by the hanging drop method in 0.1 M Tris-HCl (pH 8.5), 22%-25% PEG 4000 (w/v) in space group P212121. The apo-LsrB crystals initially obtained (a=38.0, b=74.0, c=116.2) were used to seed crystallization in 0.1 M Tris-HCl, pH 8.5, 18%-24% PEG 4000. Crystals were cryoprotected by brief soaks in 0.1 M Tris-HCl, pH 8.5, 20% PEG 4000, 16% (v/v) glycerol and flash frozen in liquid nitrogen. Native crystals diffracted to 1.9 Å and data were collected at 100 K using an R-AXIS-IV image plate detector mounted on a Rigaku 200HB generator. Selenomethionine LsrB crystals were grown and frozen in the same conditions as native crystals. Selenomethionine crystals diffracted to 2.1 Å resolution at NSLS beam line X25, where MAD data were collected using an ADSC Q315 CCD detector. Holo-LsrB crystals (a=37.8, b=76.6, c=109.7) were prepared by addition of approximately 0.25 mM in vitro LuxS reaction product (Schauder et aL, 2001) to the native LsrB crystallization conditions, giving a DPD:LsrB molar ratio of slightly over 1:1. […]
To identify the LsrB ligand, LsrB was crystallized in the presence of DPD and the other products generated by incubating SAH with recombinant Pfs and LuxS enzymes as previously described (Schauder et al., 2001) (FIG. 1A). The structure was determined by molecular replacement and refined to 1.3 Å resolution (Table 1). […]

[5] = molecular target: V. harveyi receptor LuxP (Vibrio harveyi, UniProt P54300); conditions: Chen et al., 2002; cited from earlier work
[6] = system: S. typhimurium
Experimental: as §1

[7] = system: V. harveyi; conditions: presence or absence of 5 mM boric acid; AB medium
Experimental: as §1

[8] = borate-depleted AB medium plus 5 mM boric acid
[9] = 5 mM boric acid added to borate-depleted medium

Sequence of V. harveyi receptor LuxP (P54300 24-365): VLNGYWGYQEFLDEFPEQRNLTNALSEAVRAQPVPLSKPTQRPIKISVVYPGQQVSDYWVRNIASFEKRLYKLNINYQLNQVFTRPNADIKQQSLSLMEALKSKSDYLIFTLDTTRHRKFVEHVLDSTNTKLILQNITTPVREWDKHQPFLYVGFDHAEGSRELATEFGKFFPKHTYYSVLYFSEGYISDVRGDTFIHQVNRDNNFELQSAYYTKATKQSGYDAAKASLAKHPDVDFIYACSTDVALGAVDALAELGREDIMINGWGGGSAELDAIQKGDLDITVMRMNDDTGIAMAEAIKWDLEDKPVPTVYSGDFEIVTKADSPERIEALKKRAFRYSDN

Structure (SMILES): C[C@@]1(O)OC[C@H](O)C1(O)O [LsrB ligand]
- lsr expression (β-galactosidase activity) [1]: induces lsr expression
- light production [2, 8]: stimulate light production
- light production ([2]; borate-depleted AB medium): No light was produced

Structure (SMILES): N[C@@H](CCS)C(=O)O [homocysteine]
- autoinducer activity ([3]; product of the LuxS reaction): no autoinducer activity

Structure (SMILES): C[C@@]1(O)OC[C@H](O)C1(O)O [R-THMF, (2R,4S)-2-methyl-2,3,3,4-tetrahydroxytetrahydrofuran]
- binding to LsrB [4]: binds

Structure (SMILES): CC12OCC(O)C1(O)O[B-](O)(O)O2 [S-THMF-borate, α-L-glycero-1-dehydro-3-hydro-penta-2,3-diulo-2,5-furanosyl-2,3-cyclic borate]
- binding to LuxP [5]: binds

Structure (SMILES): OB(O)O [boric acid]
- effect of boric acid on the ability of DPD or either receptor's ligand to activate the S. typhimurium assay [1, 9]: inhibits
- effect of boric acid on the ability of DPD or either receptor's ligand to activate the V. harveyi assay [2, 9]: strongly enhances
- effect on growth [6]: no effect
- effect on growth [7]: no effect

Structure (SMILES): CC(=O)C(=O)C(O)CO (centres unmarked) [DPD, 4,5-dihydroxy-2,3-pentanedione]
- lsr expression (β-galactosidase activity) [1]: induces lsr expression
- bioluminescence in V. harveyi ([3]; chemically synthesized DPD, only in the presence of boric acid (Meijler et al., 2004)): induces bioluminescence
- light production [2, 8]: stimulate light production
- light production ([2]; borate-depleted AB medium): No light was produced
- DPD final concentration inducing a linear response in light production ([2]; in the presence of 5 mM borate, 6-8 hr incubation): 0.1 to 1 nM

Structure (SMILES): C[C@]12OC[C@H](O)[C@@]1(O)O[B-](O)(O)O2 [LuxP ligand]
- lsr expression (β-galactosidase activity) [1]: induces lsr expression
- light production ([2]; borate-depleted AB medium): failed to stimulate light production
